# Data: US20240407363A1 (priority 2021, published 2024)
# “Also recorded” adds a separate entry of the source.
# What was measured:
# [1] = test system: X. perforans GEV-485; assay: In vitro MIC and MBC determination in nutrient broth / on NA plates; assay type: cell-based; conditions: three trials
# Method: X. perforans strain GEV-485, a copper-resistant strain, was used in this study to evaluate the antibacterial activity of Hx. Working cultures of GEV-485 were retrieved from −80° C. storage vials containing bacterial suspensions in 30% glycerol (v/v). Bacterial cells were taken from the storage, streaked on nutrient agar (NA; Difco™ Sparks, MD) plates and incubated for 48 h at 28° C. and single colonies were picked and streaked on NA plates to ensure bacterial purity for further cultures. NA amended with copper (II) sulfate pentahydrate (CuSO4·5H2O) (Fisher Scientific-Hampton, NH) at 20 ppm, was used as copper tolerance selective agent. To prepare the bacterial inoculum, a single bacterial colony was streaked on NA and incubated for 24 h at 28° C. From those plates, loops of bacterial cells were collected and resuspended in SDW amended with 0.01 M MgSO4. The bacterial concentration was adjusted to ˜5.0×10^8 colony-forming units (CFU)/mL based on an optical density (OD) of 0.3 at 600 nm. The in vitro studies were conducted to determine the minimum inhibitory concentration (MIC), minimum bactericidal concentration (MBC), and the antibacterial activity at different time points.
# To determine MIC of Hx against X. perforans GEV-485, individual 96-well plates containing 100 μL of nutrient broth (NB) with varied copper and Hx concentrations were inoculated with 100 μL of the GEV-485 suspension at the concentration of 1.0×10^8 CFU/mL. The final chemical concentrations on the wells were 16, 32, 64, 128, 256, 512, 1024, 2048, 4096 and 8192 mg/L. Three wells with 100 µL of NB and 100 μL of the bacterial suspension were the controls. Solutions in all wells were thoroughly mixed by pipetting. The plate was, then, covered with a lid and incubated under stationary conditions at 28° C. for 24 h. The value of MIC for Hx and copper was determined as the minimum concentration (mg/L), at which the bacterial growth was inhibited (the solution was clear), among all tested concentrations of each chemical. After MIC was determined, an aliquot of 20 μL of the solution from the wells that gave a clear solution was plated on NA. […] The MBC was determined as the minimum concentration, at which >99.9% of the initial bacterial populations were killed and no visible growth of the bacterium was observed on the NA plates among all tested concentrations of antimicrobial agents. The experiment was repeated two more times, with three replications for each treatment.
# [2] = test system: X. perforans GEV-485; assay: Greenhouse in planta experiments, hexanoic acid soil drench, tomato bacterial spot ('Bonnie Best'); assay type: in vivo
# Method: Hexanoic acid (Hx) (>99%, Sigma Aldrich) was tested for its effect on the management of bacterial leaf spot of tomato. Stock solutions of Hx (1.0×10^4 mg/L) were prepared with sterile distilled water (SDW) and stored at 4° C. for further dilutions. Copper treatment suspensions were prepared using Kocide® 3000 (DuPont, Wilmington DE) that contains 30% metallic Cu in the form of copper hydroxide [Cu(OH)2]. For greenhouse experiments, Kocide® 3000 at the rate of 2.1 g/L and Penncozeb 75DF (United Phosphorus Inc., King of Prussia, PA) at the rate of 1.2 g/L in SDW were prepared.
# The plants were then moved to a growth chamber with temperature at 28° C., 12 h photoperiod and 80% relative humidity. Fifty mL of Hx at the tested rates were applied to 3-4 weeks old plants by soil drench, 4 and 2 days prior to bacterial inoculation to prime the plants and induce basal plant defense. Kocide® 3000 and a mixture of Kocide® 3000+Penncozeb® were sprayed on the tomato plants until runoff and allowed to air dry for 4 h before bacterial inoculation. Three plants were sprayed with SDW only, as a negative control. […] Disease severity and phytotoxicity were evaluated every other day using the Horsfall-Barratt scale (Horsfall and Barratt, 1945), starting from 3 days up to 20 days post inoculation. […]
# [3] = test system: Xanthomonas perforans; assay: Field trials on hexanoic acid, bacterial spot of tomato (cv. Red bounty); assay type: in vivo; conditions: for AUDPC / BS last rating of bacterial spot severity / YIELD: cv. Red bounty, ManKocide 2.1 mg/ml foliar spray, hexanoic acid 0.5 mg/ml drench (50 ml/plant)
# Method: Table 3 notes: Data from 2 repeated field experiments: BS1/BS2=bacterial disease severity in Exp. 1/Exp. 2; AUDPC1/AUDPC2=area under the disease progress curve in Exp. 1/Exp. 2; YIELD 1/YIELD 2=fruit yield (Kg/plant) in Exp/1/Exp.2; KOCIDER=Kocide® 3000 (Cu bactericide) at 1.75 lb/acre (=2.1 mg/mL) by sprays; MANKO=Mankocide® (Cu+mancozeb) at 1.75 lb/acre by foliar spray; HEXANO=hexanoic acid at 0.5 mg/mL (=500 mg/L) by root drench weekly for a total of 8 weeks.
# It is noted regarding the table above that: (1) data in this table were from 2 repeated field experiments, whereas those in FIG. 9 were from a greenhouse preliminary test; and (2) in the field experiments, Hx at 500 mg/L was weekly applied as soil drench for a total of 8 weeks. In the greenhouse test (FIG. 9), Hx at 512 mg/L was applied only one time as soil drench at 1, 3, or 7 days prior to the bacterial inoculation, respectively.
# Tomato seedlings were transplanted in fall for the first trial (trial 1) and spring for the second trial (trial 2). Treatments were started about two weeks after transplanting following weekly applications for a total of eight weeks. Tomato plants were inoculated with the pathogen Xanthomonas perforans (1-5×10^6 cfu/ml) the following day in the afternoon after the third treatment. Disease severity was rated weekly when bacterial spot symptoms were observed, and area under the disease progress curve (AUDPC) was calculated. Tomato fruit were harvested two to three times for each trial and graded according to the USDA standard. Total fruit yield in each treatment and the untreated control (CK) was subjected to statistical analysis using SAS (version 9.2, SAS Institute Inc., Cary, NC, USA). Disease severity of last rating and AUDPC from each trial were analyzed and presented.
# Hexanoic acid at 0.5 mg/ml was drenched (50 ml/plant) to the base of each plant. This chemical was evaluated in two independent trials. Tomato cultivar was ‘Red bounty’.
# [4] = 0.5 mg/ml applied as root drench (50 ml/plant)
# [5] = Experiment 1, Kocide 3000 1.75 lb/acre (=2.1 mg/mL) sprays, Mankocide 1.75 lb/acre foliar spray, hexanoic acid 0.5 mg/mL root drench weekly for 8 weeks
# [6] = Experiment 2, Kocide 3000 1.75 lb/acre (=2.1 mg/mL) sprays, Mankocide 1.75 lb/acre foliar spray, hexanoic acid 0.5 mg/mL root drench weekly for 8 weeks
smiles,measurement,setting,value
"CCCCCC(=O)O [Hexanoic acid, hexanoic acid]",MIC,"[1]; 28° C. for 24 h, copper-resistant strain, read-out: MIC",512 µg/mL
same,MBC,"[1]; >99.9% of initial bacterial populations killed, no visible growth on NA, read-out: MBC",1020 µg/mL
same,"bacterial spot disease (preliminary AUDPC, FIG. 9) compared to the control (UTC)","[2]; 512 mg/L applied only once as soil drench 1, 3, and 7 days prior to the bacterial inoculation",did not appear to significantly reduce the bacterial spot disease
same,"disease severity (AUDPC, FIG. 10) compared to the control (UTC)","[2]; different treatment concentrations, application two days prior to the bacterial inoculation, two-week rating period",significantly (P<0.05) lower disease severity; also recorded: statistically significant (p<0.05) lower disease severity
same,effect on disease reduction compared to ManKocide at the label rate of 2.1 mg/ml,[3]; [4],even better than ManKocide®
same,marketable tomato fruit yield compared to controls,[3]; [4],greater than the untreated control (CK) and ManKocide® in one of the two independent trials
same,bacterial spot disease severity and AUDPC compared to the untreated control (CK),"[3]; 0.5 mg/ml applied as root drench (50 ml/plant), Homestead, FL 2020-2021",significantly (P<0.05) reduced bacterial spot disease severity at the last rating and the overall disease progress
same,AUDPC1 area under the disease progress curve,[3]; [5],95.93 c
same,BS1 bacterial disease severity,[3]; [5],10.8 d %
same,YIELD1 fruit yield,[3]; [5],8.83 a Kg/plant
same,AUDPC2 area under the disease progress curve,[3]; [6],390.1 c
same,BS2 bacterial disease severity,[3]; [6],41.3 c %
same,YIELD2 fruit yield,[3]; [6],2.76 a Kg/plant
same,AUDPC,[3]; Trial 1,95.9 c
same,BS last rating of bacterial spot severity,[3]; Trial 1,10.8 c %
same,YIELD,[3]; Trial 1,8.83 a kg/plant
same,AUDPC,[3]; Trial 2,390.1 c
same,BS last rating of bacterial spot severity,[3]; Trial 2,41.3 b %
same,YIELD,[3]; Trial 2,2.76 a kg/plant
